Assays:
Spodoptera littoralis = experiment: Tested for its ability to inhibit antennal esterases of Spodoptera littoralis without pre-incubation at 63 uM concentration
[1] = Tested for the ability to inhibit antennal esterases of Spodoptera littoralis with pre-incubation
[2] = Compound was tested for competitive inhibition of antennal esterases of Spodoptera littoralis
[3] = Tested for its ability to inhibit antennal esterases of Spodoptera littoralis without pre-incubation

SMILES	inhibition (Spodoptera littoralis)	IC50 [1]	Ki [2]	IC50 [3]
O=C(CCc1ccccc1)C(F)(F)F	43%			
CCCCCCCCCCCCCCC(=O)C(F)(F)F		18.4 µM		
CCCCCCCCCCCCCCCCCC(=O)C(F)(F)F	44%			
O=C(c1cccc2ccccc12)C(F)(F)F	38%			
CCCCCCCCCCCCC(=O)C(F)(F)F		1.16 µM	29.8 µM	10.6 µM
CCCCCCCCCCC(=O)C(F)(F)F		19.3 µM		
CCCCCCCCSCC(=O)C(F)(F)F		0.55 µM	25.1 µM	3.7 µM
CCCCCCCCCCCCCCCCC(=O)C(F)(F)F	50%			
O=C(c1ccccc1)C(F)(F)F	31%	40.7 µM		
CCCCCCCCCCCCCC(=O)C(F)(F)F		4.4 µM		11 µM
O=C(c1ccc2ccccc2c1)C(F)(F)F		11.4 µM	249 µM	7.9 µM
O=C(Cc1ccccc1)C(F)(F)F	36%			
